Source: PMC11359794, “Amorphous Polymer–Phospholipid Solid Dispersions for the Co-Delivery of Curcumin and Piperine Prepared via Hot-Melt Extrusion” (Pharmaceutics, 2024)
≈ marks a conversion by molar mass, not a printed value. Read-outs that look alike come from different tables or passages of the source. Marks after values point to notes of the source that are not given here.

Tests used:
[1] = Solubility studies (excess powder, 24 h, 25 °C, HPLC); type: physicochemical; settings: for solubility at 24 h: 25 °C; for Solubility classification: based on solubility test at pH 1.2 and pH 6.8, crystalline compounds
Description: HPLC was used to measure the concentrations of piperine and curcumin in samples taken during permeability, dissolution, and solubility investigations. A Shimadzu LC-2050C (Shimadzu Corp., Kyoto, Japan) was equipped with a diode array detector (DAD). A Dr. Maisch ReproSil-Pur Basic-C18 100 Å column with a 5 μm particle size and a 100 × 4.60 mm size (Dr. Maisch, Ammerbuch-Entringen, Germany) was used as a stationary phase. HPLC-grade methanol/0.1% acetic acid (85:15 v/v) was used as the mobile phase. The mobile phase was vacuum filtered through a 0.45 μm nylon filter (Phenomenex, Torrance, CA, USA). The analysis parameters were as follows: a flow rate of 0.3 mL/min, a wavelength of 420 nm for curcumin and 340 nm for piperine, and a column temperature of 30 °C. The injection volume differed depending on the assay. […] The duration of the run was 9 min. […] Chromatograms (Figure S1) and method validation parameters (Table S1) were added to the Supplementary Materials. The following steps were used to prepare phosphate buffer at pH 6.8: In a 1000 mL volumetric flask, 250 mL of 0.2 N potassium dihydrogen phosphate solution was added, followed by 112 mL of a 0.2 N sodium hydroxide solution. Purified water was added to make the volume up to 1000 mL. A hydrochloric acid solution with a pH of 1.2 was prepared according to the manufacturer's instructions ([…], Poznań, Poland) from the analytically weighed amount. A 10 mL glass tube was filled with an excess amount of powder (corresponding to 4 mg of each active substance). […] The obtained solutions were filtered, diluted 1:20 v/v with water, and filtered again through a 0.2 μm PTFE membrane filter (Sigma-Aldrich, St. Louis, MO, USA) and analyzed using the HPLC method described above.

[2] = PAMPA permeability assay, gastrointestinal tract (GIT) model; type: in vitro ADME; settings: donor pH ≈6.8, 4 h, 37 °C
Description: (§1) HPLC was used to measure the concentrations of piperine and curcumin in samples taken during permeability, dissolution, and solubility investigations. A Shimadzu LC-2050C (Shimadzu Corp., Kyoto, Japan) was equipped with a diode array detector (DAD). A Dr. Maisch ReproSil-Pur Basic-C18 100 Å column with a 5 µm particle size and a 100 × 4.60 mm size (Dr. Maisch, Ammerbuch-Entringen, Germany) was used as a stationary phase. HPLC-grade methanol/0.1% acetic acid (85:15 v/v) was used as the mobile phase. The mobile phase was vacuum filtered through a 0.45 µm nylon filter (Phenomenex, Torrance, CA, USA). The analysis parameters were as follows: a flow rate of 0.3 mL/min, a wavelength of 420 nm for curcumin and 340 nm for piperine, and a column temperature of 30 °C. The injection volume differed depending on the assay. […] The duration of the run was 9 min. […] Chromatograms (Figure S1) and method validation parameters (Table S1) were added to the Supplementary Materials. The Parallel Artificial Membrane Permeability Assay (PAMPA) models were used to study the permeability of the blood-brain barrier (BBB) and the gastrointestinal tract (GIT) in vitro. Two 96-well microfilter plates formed the sandwich. There were two chambers in the PAMPA system: the acceptor chamber at the top and the donor chamber at the bottom. […]

[3] = PAMPA permeability assay, blood-brain barrier (BBB) model; type: in vitro ADME; settings: donor pH ≈7.4, 4 h, 37 °C
Description: as §1

[4] = Differential scanning calorimetry (glass transition, glass-forming ability); type: physicochemical; settings: heating–cooling–heating, different cooling rates; no crystallization during cooling and following heating
Experimental: A DSC 214 Polyma differential scanning calorimeter (Netzsch, Selb, Germany) was used for the thermal analysis. Samples of about 5–10 mg were put into crimped aluminum pans with a small hole in the lid. To remove water from the samples, they were heated to 80 °C and kept for 8 min at this temperature, cooled to 25 °C, and then heated again to 235 °C. Raw compounds were heated to 235 °C, cooled to 25 °C, and then heated once again to 235 °C to determine their glass transition temperature (Tg). […] The Tg was taken as the midpoint between onset and endpoint temperatures. Various heating–cooling–heating cycles were carried out to evaluate the glass-forming abilities.

[5] = cited from earlier work

solubility at 24 h ([1]; HCl solution, pH 1.2 HCl, read-out: Solubility, Curcumin Conc.) [µg/mL]	Permeability, Curcumin Conc. in the acceptor solution [2]	Permeability, Curcumin Conc. in the acceptor solution [3]	SMILES	Solubility classification [1]	Glass-forming ability [4]	solubility at 24 h ([1]; HCl solution, simulated gastric fluid, thermodynamic from solid, pH 1.2 HCl, read-out: Solubility, Piperine Conc.) [µg/mL]	solubility at 24 h ([1]; aqueous buffer, thermodynamic from solid, pH 6.8 phosphate buffer, read-out: Solubility, Piperine Conc.) [µg/mL]	Permeability, Piperine Conc. in the acceptor solution [2]	Permeability, Piperine Conc. in the acceptor solution [3]	Log P [5]
0.11 ± 0.01 (≈ 0.299 µM)	0.00061 ± 0.000038 ^g mg/mL	0.00016 ± 0.000057 ^f mg/mL	COc1cc(/C=C/C(=O)CC(=O)/C=C/c2ccc(O)c(OC)c2)ccc1O [Curcumin]	practically insoluble	good glass-forming ability	–	–	–	–	–
–	–	–	O=C(/C=C/C=C/c1ccc2c(c1)OCO2)N1CCCCC1 [Piperine]	practically insoluble	good glass-forming ability	9 ± 0.6 (≈ 31.5 µM)	8 ± 0.4 (≈ 28 µM)	0.0044 ± 0.0008 ^g mg/mL	0.0051 ± 0.0003 ^f mg/mL	2.78
